Patent US20150018384A1, “TREATMENT FOR HIGH CHOLESTEROL” (FibroGen, Inc., priority 2012, published 2015)

How the values were obtained:
[1] = tested on: genes involved in cholesterol biosynthesis in DIO mice liver; assay: Microarray expression of cholesterol biosynthesis genes in liver of DIO mice; assay type: in vivo, mouse; details: 60 mg/kg three times a week, 4 weeks of dosing, relative to vehicle treated mice
Experimental: (§1) A number of PHI compounds were evaluated for their effect on the expression of cholesterol biosynthesis genes in mouse liver. […] Liver tissue was harvested and stored in RNALater (Life Technologies). Total RNA was isolated with Trizol (Life Technologies) and purified with RNEasy96 (Qiagen) according to the manufacturers' protocols. RNA concentration was measured by NanoDrop (Thermo), and quality was assessed by Bioanalyzer (Agilent).
(§2) Biotinylated microarray probe was prepared using the 3′IVT Express kit (Affymetrix) and hybridized to mouse 430A 2.0 arrays as recommended in the manufacturer's protocol. Arrays were stained, washed, and scanned using Affymetrix equipment and software. Three arrays were run for each treatment and time point, each representing the liver sample from one individual animal.
(§3) For microarray analysis, RNA from animals in each treatment group was pooled in pairs (n=3 pairs for 4 h vehicle, n=2 pairs for all other treatment groups, for a total of 13 arrays per compound study). This approach was used to improve the signal-to-noise ratio on microarrays. Biotinylated probe was prepared using the One-Cycle cDNA synthesis kit (Affymetrix) and hybridized to mouse 430A 2.0 arrays as recommended in the manufacturer's protocol. Arrays were stained, washed, and scanned using Affymetrix equipment and software.
(§4) Array quality was assessed with GeneChip Operating System and/or Command Console software (Affymetrix). CEL files were uploaded to GeneSpring 7.3.1 (Agilent) using GC-RMA baseline correction. Principal Components Analysis was used to identify and reject outlier arrays. Data are reported as fold-change compared to timepoint-matched vehicle controls from the same study. Values less than 1.0 indicate a reduction of RNA in the treated animal liver tissue.
Liver tissue was collected as described in Example 6 from DIO mice at the end of the study (4 weeks of dosing) described in Example 12. RNA isolation and microarray analysis were carried out as described in Example 6. The expression of 16 genes involved in cholesterol biosynthesis in mice treated with Compound B, Compound E, or Compound D, relative to that in the vehicle treated mice, is shown in Table 7.

[2] = tested on: subjects with end-stage renal disease (ESRD) receiving maintenance hemodialysis; assay: Study 2: phase 2 study of compound A vs EPO in ESRD subjects on maintenance hemodialysis; assay type: in vivo, human; details: treated for 19 weeks, FIG. 2
Experimental: Total cholesterol and lipid panels were measured by standard procedures.
Total cholesterol was measured from all subjects in Study 1 or Study 2 as part of the chemistry panel at prespecified time points.
Frozen serum samples, collected from subjects in Study 1 or Study 2, were selected for the lipid panel analysis based on the following criteria: 1) with matched baseline (D1W1) and; 2) at least one other time point. The complete lipid panel includes: total cholesterol (TC), HDL, LDL-measured, Triglycerides and VLDL (Calculated). Ratio of HDL/LDL or LDL/HDL were analyzed.
A total of n=20 subjects were selected and assayed for the complete lipid panel as described above. Subjects on this study protocol were not required to fast nor have any diet restrictions.

[3] = tested on: subjects with end stage renal disease (ESRD); assay: ESRD subjects switched from epoetin alfa to Compound A or continued on epoetin alfa; assay type: in vivo, human; details: six weeks
Experimental: Mean total cholesterol change for the Compound A-treated subjects (all cohorts) was a decrease of 15 mg/dL compared to an increase of 18 mg/dL for the epoetin alfa treated subjects.

[4] = tested on: subjects with end stage renal disease (ESRD); assay: as above; assay type: in vivo, human
[5] = tested on: Cholesterol Biosynthesis Genes in the Mouse Liver; assay: Microarray expression of cholesterol biosynthesis genes in mouse liver; assay type: in vivo
Experimental: as §1, §2
Animals were sacrificed 4 h or 8 h later. Each compound was tested in a separate animal study with separate controls. Liver tissue was harvested and stored in RNALater (Life Technologies). Total RNA was isolated with Trizol (Life Technologies) and purified with RNEasy96 (Qiagen) according to the manufacturers' protocols. RNA concentration was measured by NanoDrop (Thermo), and quality was assessed by Bioanalyzer (Agilent).
as §3, §4

[6] = baseline, Compound A 3 cohorts n=74, Epoetin alfa n=22

## N#Cc1nc(C(=O)NCC(=O)O)c(O)c2c(Oc3ccccc3)cccc12 [Compound E, [(1-Cyano-4-hydroxy-5-phenoxy-isoquinoline-3-carbonyl)-amino]-acetic acid]
[1]
  3-hydroxy-3-methylglutaryl-Coenzyme A reductase (Hmgcr) expression: 0.36
  3-hydroxy-3-methylglutaryl-Coenzyme A synthase 1 (Hmgcs1) expression: 0.33
  7-dehydrocholesterol reductase (Dhcr7) expression: 0.52
  NAD(P) dependent steroid dehydrogenase-like (Nsdhl) expression: 0.77
  acetyl-Coenzyme A acetyltransferase 2 (Acat2) expression: 0.69
  cytochrome P450, family 51 (Cyp51) expression: 0.26
  farnesyl diphosphate farnesyl transferase 1 (Fdft1) expression: 0.40
  farnesyl diphosphate synthetase (Fdps) expression: 0.57
  isopentenyl-diphosphate delta isomerase (Idi1) expression: 0.42
  lanosterol synthase (Lss) expression: 0.45
  mevalonate (diphospho) decarboxylase (Mvd) expression: 0.34
  mevalonate kinase (Mvk) expression: 0.58
  phosphomevalonate kinase (Pmvk) expression: 0.74
  squalene epoxidase (Sqle) expression: 0.52
  sterol-C4-methyl oxidase-like (Sc4mol) expression: 0.27
  sterol-C5-desaturase (fungal ERG3, delta-5-desaturase) homolog (S. cerevisae) (Sc5d) expression: 0.34

## Epoetin alfa [reference compound]
[2]
  change in total cholesterol from baseline over time: No reduction of total cholesterol
[3]; Mean (±SD), Compound A orally three times a week (n=74) or continued epoetin alfa (n=22)
  Total Cholesterol change: +18 (22) mg/dL
[3]
  Mean total cholesterol change, increase: 18 mg/dL
[4]; Mean (±SD), six weeks, Compound A orally three times a week (n=74) or continued epoetin alfa (n=22)
  LDL cholesterol change: +5 (14) mg/dL
[4]; [6]
  Mean BL LDL Cholesterol: 90.75 mg/dL
  Mean BL Total Cholesterol: 158.41 mg/dL
[4]; both groups stratified by BL total cholesterol ≦200 or >200 mg/dL, FIG. 16
  mean total cholesterol over the course of treatment: increase
[4]; six weeks
  HDL-C: did not change significantly
  Mean change in LDL-C, increase: 5 mg/dL
[4]; subjects with the higher BL total cholesterol (n=2), FIG. 17
  mean LDL-C over the course of treatment: slight decrease
[4]; subjects with the lower BL total cholesterol (n=20)
  mean LDL-C over the course of treatment: increase

## CC(C)Oc1ccc2c(O)c(C(=O)NCC(=O)O)nc(C#N)c2c1 [Compound H, [(1-Cyano-4-hydroxy-7-isopropoxy-isoquinoline-3-carbonyl)-amino]-acetic acid]
[5]; 60 mg/kg oral, 4 h
  3-hydroxy-3-methylglutaryl-Coenzyme A reductase (Hmgcr) RNA expression: 0.23 fold-change
  3-hydroxy-3-methylglutaryl-Coenzyme A synthase 1 (Hmgcs1) RNA expression: 0.62 fold-change
  7-dehydrocholesterol reductase (Dhcr7) RNA expression: 0.83 fold-change
  NAD(P) dependent steroid dehydrogenase-like (Nsdhl) RNA expression: 0.76 fold-change
  acetyl-Coenzyme A acetyltransferase 2 (Acat2) RNA expression: 0.71 fold-change
  cytochrome P450, family 51 (Cyp51) RNA expression: 0.66 fold-change
  farnesyl diphosphate farnesyl transferase 1 (Fdft1) RNA expression: 0.59 fold-change
  farnesyl diphosphate synthetase (Fdps) RNA expression: 0.69 fold-change
  isopentenyl-diphosphate delta isomerase (Idi1) RNA expression: 0.63 fold-change
  lanosterol synthase (Lss) RNA expression: 0.65 fold-change
  mevalonate (diphospho) decarboxylase (Mvd) RNA expression: 0.45 fold-change
  mevalonate kinase (Mvk) RNA expression: 0.74 fold-change
  phosphomevalonate kinase (Pmvk) RNA expression: 0.71 fold-change
  squalene epoxidase (Sqle) RNA expression: 0.95 fold-change
  sterol-C4-methyl oxidase-like (Sc4mol) RNA expression: 0.50 fold-change
  sterol-C5-desaturase (fungal ERG3, delta-5-desaturase) homolog (S. cerevisae) (Sc5d) RNA expression: 0.92 fold-change
[5]; 60 mg/kg oral, 8 h
  3-hydroxy-3-methylglutaryl-Coenzyme A reductase (Hmgcr) RNA expression: 0.17 fold-change
  3-hydroxy-3-methylglutaryl-Coenzyme A synthase 1 (Hmgcs1) RNA expression: 0.19 fold-change
  7-dehydrocholesterol reductase (Dhcr7) RNA expression: 0.39 fold-change
  NAD(P) dependent steroid dehydrogenase-like (Nsdhl) RNA expression: 0.34 fold-change
  acetyl-Coenzyme A acetyltransferase 2 (Acat2) RNA expression: 0.44 fold-change
  cytochrome P450, family 51 (Cyp51) RNA expression: 0.28 fold-change
  farnesyl diphosphate farnesyl transferase 1 (Fdft1) RNA expression: 0.33 fold-change
  farnesyl diphosphate synthetase (Fdps) RNA expression: 0.24 fold-change
  isopentenyl-diphosphate delta isomerase (Idi1) RNA expression: 0.28 fold-change
  lanosterol synthase (Lss) RNA expression: 0.35 fold-change
  mevalonate (diphospho) decarboxylase (Mvd) RNA expression: 0.24 fold-change
  mevalonate kinase (Mvk) RNA expression: 0.37 fold-change
  phosphomevalonate kinase (Pmvk) RNA expression: 0.5 fold-change
  squalene epoxidase (Sqle) RNA expression: 0.30 fold-change
  sterol-C4-methyl oxidase-like (Sc4mol) RNA expression: 0.19 fold-change
  sterol-C5-desaturase (fungal ERG3, delta-5-desaturase) homolog (S. cerevisae) (Sc5d) RNA expression: 0.61 fold-change

## COc1ccc(Cn2c(Cl)c(Cl)c3c(O)c(C(=O)NCC(=O)O)nc(C#N)c32)cc1 [Compound F]
[5]; 10 mg/kg oral, 4 h
  3-hydroxy-3-methylglutaryl-Coenzyme A reductase (Hmgcr) RNA expression: 0.17 fold-change
  3-hydroxy-3-methylglutaryl-Coenzyme A synthase 1 (Hmgcs1) RNA expression: 0.36 fold-change
  7-dehydrocholesterol reductase (Dhcr7) RNA expression: 0.63 fold-change
  NAD(P) dependent steroid dehydrogenase-like (Nsdhl) RNA expression: 0.55 fold-change
  acetyl-Coenzyme A acetyltransferase 2 (Acat2) RNA expression: 0.77 fold-change
  cytochrome P450, family 51 (Cyp51) RNA expression: 0.62 fold-change
  farnesyl diphosphate farnesyl transferase 1 (Fdft1) RNA expression: 0.56 fold-change
  farnesyl diphosphate synthetase (Fdps) RNA expression: 0.43 fold-change
  isopentenyl-diphosphate delta isomerase (Idi1) RNA expression: 0.50 fold-change
  lanosterol synthase (Lss) RNA expression: 0.51 fold-change
  mevalonate (diphospho) decarboxylase (Mvd) RNA expression: 0.28 fold-change
  mevalonate kinase (Mvk) RNA expression: 0.76 fold-change
  phosphomevalonate kinase (Pmvk) RNA expression: 0.66 fold-change
  squalene epoxidase (Sqle) RNA expression: 0.48 fold-change
  sterol-C4-methyl oxidase-like (Sc4mol) RNA expression: 0.39 fold-change
  sterol-C5-desaturase (fungal ERG3, delta-5-desaturase) homolog (S. cerevisae) (Sc5d) RNA expression: 0.49 fold-change
[5]; 10 mg/kg oral, 8 h
  3-hydroxy-3-methylglutaryl-Coenzyme A reductase (Hmgcr) RNA expression: 0.66 fold-change
  3-hydroxy-3-methylglutaryl-Coenzyme A synthase 1 (Hmgcs1) RNA expression: 1.23 fold-change
  7-dehydrocholesterol reductase (Dhcr7) RNA expression: 1.18 fold-change
  NAD(P) dependent steroid dehydrogenase-like (Nsdhl) RNA expression: 1.40 fold-change
  acetyl-Coenzyme A acetyltransferase 2 (Acat2) RNA expression: 1.09 fold-change
  cytochrome P450, family 51 (Cyp51) RNA expression: 1.05 fold-change
  farnesyl diphosphate farnesyl transferase 1 (Fdft1) RNA expression: 1.42 fold-change
  farnesyl diphosphate synthetase (Fdps) RNA expression: 1.15 fold-change
  isopentenyl-diphosphate delta isomerase (Idi1) RNA expression: 1.08 fold-change
  lanosterol synthase (Lss) RNA expression: 1.04 fold-change
  mevalonate (diphospho) decarboxylase (Mvd) RNA expression: 0.58 fold-change
  mevalonate kinase (Mvk) RNA expression: 0.88 fold-change
  phosphomevalonate kinase (Pmvk) RNA expression: 1.53 fold-change
  squalene epoxidase (Sqle) RNA expression: 0.81 fold-change
  sterol-C4-methyl oxidase-like (Sc4mol) RNA expression: 0.92 fold-change
  sterol-C5-desaturase (fungal ERG3, delta-5-desaturase) homolog (S. cerevisae) (Sc5d) RNA expression: 0.52 fold-change
